According to patent publication US8138188B2, “Melanocortin type 4 receptor agonist piperidinoylpyrrolidines” (Pfizer Inc., priority 2006, dated 2012):

How the values were obtained:
[1] = In vitro metabolism rate determination, human liver microsome (HLM) assay; format: in vitro ADME; conditions: human liver microsomes, substrate 1 μM; read-out: HLM (intrinsic clearance)
Description: In vitro Metabolism Rate Determination (Human Liver Microsome (HLM); Rat Liver Microsome (RLM) Assay)
Many drugs are metabolised by the cytochrome P450 mono-oxygenase system. This enzyme is found in high concentrations in the liver and is bound to the endoplasmic reticulum of the hepatocyte. The enzyme system can be obtained in semi-purified state by the preparation of the hepatic microsomal fractions. Determining a compound's in vitro half-life in such a system provides a useful indicator of metabolic stability.
Methodology For In Vitro Rate Determination Using Hepatic & Supermix Microsomes
The method outlined below is for a total incubation volume of 1.5 ml.
1. The following mixture is prepared in a test tube:
2. Defrost microsomes at room temperature and add sufficient microsomes to give a final concentration of 0.5 nmol cytochrome P450/ml of incubation e.g. for a 1.5 ml incubation, the volume of microsomes to be added is:
[formula] 3. Add sufficient MilliQ water to give a total incubation volume of 1.425 ml. 4. Remove 237.5 μl of incubation mix and place in test tube for PNA positive control. Add 2.5 μl of PNA solution, whirlimix, and put tube into a rack in the thermostatically controlled shaking water bath 5. Remove 100 μl for no substrate control and dispense in test tube. Place test tube in a rack in the thermostatically controlled shaking water bath. 6. Add substrate to the incubation. The substrate should be at an initial concentration of 1 μM. The volume of substrate required in the remaining 1.162.5 ml incubation is calculated as follows:
[formula] • N.B. The volume of organic solvent added should not exceed 0.1% of the total incubation volume. 7. Remove 100 μl of incubation mix into test tube for no cofactor control. Whirlimix and put into a rack in the thermostatically controlled shaking water bath. 8. Pre-incubate the tube containing the incubation mix, also positive control and no cofactor tubes in the thermostatically controlled shaking water bath set at 37° C. for approx 5 min. 9. Add NADP to initiate reaction (75 μl to each 1.162.5 ml incubation mix, 12.5 μl to positive control tube and 5 μl to no substrate tube) and take first time point immediately. The PNA positive control, no cofactor control and no substrate tubes are incubated for the total incubation time. 10. Remove 100 μl aliquots up to 9 different sampling points from 0 to 60 min (usually 0, 3, 5, 10, 15, 20, 30, 45 & 60 min) and terminate reaction. Longer incubation times can be used, but, after 120 min the microsomes deteriorate. The reaction may be terminated by addition of organic solvent, acid or base. At the end of the incubation process the no cofactor and no substrate controls in a similar manner i.e. terminate with the same reagent. 11. PNA Positive Control Procedure: • After the final sample has been taken, remove the positive control and add 1 ml 20% TCA to this tube. Also prepare a tube containing 250 μl of a PNP standard at 50 μM, and add 1 ml 20% TCA. Whirlimix both tubes and leave for approx 5 min to allow the protein to precipitate. • Centrifuge both tubes for approx 5 min in an instrument set at 3500 rpm. Remove 1 ml of supernatant and place into clean test tubes, discard the remainder. • Add 1 ml 10M NaOH to the supernatant, whirlimix, and leave to stand for approx min. Blank spectrophotometer with distilled water at 400 nm then measure absorbance of the PNP standard against distilled water. The microsomal 4-nitroanisole O-demethylase activity is calculated as follows: Calculation of Results
[formula] • The activity value from the incubation MUST be equal to or greater than 85% of the mean value of the batch used for the incubation to be valid. If this criteria is not met, then the incubation must be repeated. 11. Analyse samples (including no cofactor and no substrate control) by a specific assay for the substrate to determine the disappearance kinetics. Analysis Of Data […]

[2] = biological target: T1, CYP3A4 (Homo sapiens, UniProt P08684); assay: High density drug-drug interactions (DDI) 3 μM cocktail screen in human liver microsomes; format: in vitro ADME; conditions: 3 uM test compound, pooled human liver microsomes, probe midazolam 2 μM; read-out: % Inhibition of 3A4 metabolism at 3 uM
T1 construct: utilizes human liver microsomes together with isoform-specific clinical drug probes; from tissue; host or cells: human liver microsomes
T1 sequence (P08684 whole entry, canonical isoform): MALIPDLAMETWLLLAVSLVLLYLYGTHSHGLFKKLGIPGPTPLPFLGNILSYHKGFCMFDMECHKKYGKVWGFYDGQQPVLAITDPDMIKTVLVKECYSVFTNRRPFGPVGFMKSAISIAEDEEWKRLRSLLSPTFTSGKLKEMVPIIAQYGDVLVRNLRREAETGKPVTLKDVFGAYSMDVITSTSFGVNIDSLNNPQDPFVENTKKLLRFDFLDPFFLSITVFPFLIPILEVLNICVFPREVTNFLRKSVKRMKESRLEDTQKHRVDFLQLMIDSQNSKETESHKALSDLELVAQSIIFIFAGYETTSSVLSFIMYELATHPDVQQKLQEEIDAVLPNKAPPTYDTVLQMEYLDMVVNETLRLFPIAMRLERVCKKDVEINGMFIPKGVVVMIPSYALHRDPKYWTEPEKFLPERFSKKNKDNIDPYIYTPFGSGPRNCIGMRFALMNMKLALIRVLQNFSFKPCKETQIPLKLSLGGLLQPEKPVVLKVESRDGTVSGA
Procedure: High Density Drug-Drug Interactions (DDI) 3 μM Cocktail Screen
A drug interaction is a situation in which a substance affects the activity of another drug, i.e. the effects are increased or decreased, or together they produce a new effect that neither produces on its own. Drug interactions may be the result of various processes but a relatively common one is where one drug affects the pharmacokinetics of another by inhibiting the cytochrome P450 that metabolises it. Because of the importance of these phenomena, assessment of the DDI potential for new chemical entities (NCEs) is considered important early on in the drug discovery process.
The DDI cocktail screen in human liver microsomes (HLM) is run in a fully automated fashion and the aim of the screen is to provide a single-point assessment of the DDI potential of new chemical entity (NCE; tested at 3 μM) against the 4 primary cytochrome P450 enzymes, 1A2, 2D6, 2C9 and 3A4.
The substrate cocktail approach for P450 DDI utilizes human liver microsomes together with isoform-specific clinical drug probes and permits the simultaneous measurement of the inhibition of P450 1A2, 2C9, 2D6 & 3A4 activities in a single incubation. This is run in high throughput with simultaneous detection of metabolites by LC-MS/MS. This method has been thoroughly tested and evaluated using standard compounds.
Appearance of the metabolite of each substrate is measured over time in the presence and absence of the NCE (test compound/inhibitor) at a concentration of 3 μM. The compounds are assessed for their inhibitory potential as a percentage value and interpreted using the following scheme.

microsomal CLint at 1 μM [1] [µL/min/mg]	inhibition at 3 μM [2] [%]	SMILES
< 7	54	C[C@@H]1CN(C(=O)[C@@H]2CN(c3ccc(C#N)cn3)C[C@H]2c2ccc(Cl)cn2)C[C@H](C)[C@@]1(O)c1ccc(F)cc1 [Example 1, 6-[(3S,4S)-3-(5-Chloropyridin-2-yl)-4-{[(3R,4R,5S)-4-(4-fluorophenyl)-4-hydroxy-3,5-dimethylpiperidin-1-yl]carbonyl}pyrrolidin-1-yl]nicotinonitrile]
< 12	64	C[C@@H]1CN(C(=O)[C@@H]2CN(c3ccc(C#N)nn3)C[C@H]2c2ccc(Cl)cn2)C[C@H](C)[C@@]1(O)c1ccc(F)cc1 [Example 2, 6-[(3S,4S)-3-(5-Chloropyridin-2-yl)-4-{[(3R,4R,5S)-4-(4-fluorophenyl)-4-hydroxy-3,5-dimethylpiperidin-1-yl]carbonyl}pyrrolidin-1-yl]pyridazine-3-carbonitrile]
60	38	COc1ccc(N2C[C@@H](C(=O)N3C[C@@H](C)[C@](O)(c4ccc(F)cc4)[C@@H](C)C3)[C@H](c3ccc(Cl)cn3)C2)nn1 [Example 4, (3R,4R,5S)-1-{[(3S,4S)-4-(5-chloropyridin-2-yl)-1-(6-methoxypyridazin-3-yl)pyrrolidin-3-yl]carbonyl}-4-(4-fluorophenyl)-3,5-dimethylpiperidin-4-ol]
< 7	34	C[C@@H]1CN(C(=O)[C@@H]2CN(c3ccc(Cl)nn3)C[C@H]2c2ccc(F)cn2)C[C@H](C)[C@@]1(O)c1ccc(Cl)cc1 [Example 5, (3R,4R,5S)-4-(4-chlorophenyl)-1-{[(3S,4S)-1-(6-chloropyridazin-3-yl)-4-(5-fluoropyridin-2-yl)pyrrolidin-3-yl]carbonyl}-3,5-dimethylpiperidin-4-ol]
	32	C[C@@H]1CN(C(=O)[C@@H]2CN(c3ccc(=O)[nH]n3)C[C@H]2c2ccc(F)cn2)C[C@H](C)[C@@]1(O)c1ccc(Cl)cc1 [Example 6, 6-[(3S,4S)-3-{[(3R,4R,5S)-4-(4-chlorophenyl)-4-hydroxy-3,5-dimethylpiperidin-1-yl]carbonyl}-4-(5-fluoropyridin-2-yl)pyrrolidin-1-yl]pyridazin-3(2H)-one]
21	19	C[C@@H]1CN(C(=O)[C@@H]2CN(c3ccc(=O)n(C)n3)C[C@H]2c2ccc(F)cn2)C[C@H](C)[C@@]1(O)c1ccc(Cl)cc1 [Example 7, 6-[(3S,4S)-3-{[(3R,4R,5S)-4-(4-chlorophenyl)-4-hydroxy-3,5-dimethylpiperidin-1-yl]carbonyl}-4-(5-fluoropyridin-2-yl)pyrrolidin-1-yl]-2-methylpyridazin-3(2H)-one]
> 440	94	C[C@@H]1CN(C(=O)[C@@H]2CN(c3cncc(F)c3)C[C@H]2c2ccc(Cl)cn2)C[C@H](C)[C@@]1(O)c1ccccn1 [Example 8, (3R,4R,5S)-1-{[(3S,4S)-4-(5-chloropyridin-2-yl)-1-(5-fluoropyridin-3-yl)pyrrolidin-3-yl]carbonyl}-3,5-dimethyl-4-pyridin-2-ylpiperidin-4-ol]
240	68	C[C@@H]1CN(C(=O)[C@@H]2CN(c3cccnn3)C[C@H]2c2ccc(Cl)cn2)C[C@H](C)[C@@]1(O)c1ccccn1 [Example 9, (3R,4R,5S)-1-{[(3S,4S)-4-(5-chloropyridin-2-yl)-1-pyridazin-3-ylpyrrolidin-3-yl]carbonyl}-3,5-dimethyl-4-pyridin-2-ylpiperidin-4-ol]
20.5	19	C[C@@H]1CN(C(=O)[C@@H]2CN(c3ccc(=O)n(C)n3)C[C@H]2c2ccc(Cl)cn2)C[C@H](C)[C@@]1(O)c1ccc(Cl)cn1 [Example 10]
< 45.5	83	COc1ccc(C2CN(c3ccc(C#N)nn3)CC2C(=O)N2CC(C)C(O)(c3ccc(F)cc3)C(C)C2)cn1 (stereo not drawn) [Example 16]
> 440	35	C[C@@H]1CN(C(=O)[C@@H]2CN(c3ccc(=O)n(C)n3)C[C@H]2c2ccc(Cl)cn2)C[C@H](C)[C@@]1(O)C1CCCCC1 [Example 17]
67	34	C[C@@H]1CN(C(=O)[C@@H]2CN(c3ccc(=O)n(C)n3)C[C@H]2c2ccc(Cl)cn2)C[C@H](C)[C@@]1(O)C1CC1 [Example 18]
21	50	CC1CN(C(=O)C2CN(c3ccc(=O)n(C)n3)CC2c2ccc(Cl)cn2)CC(C)C1(O)c1ccc(F)c(F)c1 (stereo not drawn) [Example 19]
31	35	COc1ccc(C2(O)C(C)CN(C(=O)C3CN(c4ccc(=O)n(C)n4)CC3c3ccc(Cl)cn3)CC2C)cc1 (stereo not drawn) [Example 20]
144	25	CC1CN(C(=O)C2CN(c3ccc(=O)n(C)n3)CC2c2ccc(Cl)cn2)CC(C)C1(O)c1ccccc1 (stereo not drawn) [Example 21]
179	54	C[C@@H]1CN(C(=O)[C@@H]2CN(c3ccc(=O)n(C)n3)C[C@H]2c2ccc(Cl)cn2)C[C@H](C)[C@@]1(O)c1ccccn1 [Example 22]
< 15.5	35	CC1CN(C(=O)C2CN(c3ccc(=O)n(C)n3)CC2c2ccc(Cl)cn2)CC(C)C1(O)c1ccc(Cl)cc1 (stereo not drawn) [Example 23]
355	87	CC1CN(C(=O)C2CN(c3cncc(F)c3)CC2c2ccc(Cl)cn2)CC(C)C1(O)C1CC1 (stereo not drawn) [Example 24]
308	16	CC1CN(C(=O)C2CN(c3cncc(F)c3)CC2c2ccc(Cl)cn2)CC(C)C1(O)c1ccc(F)cc1 (stereo not drawn) [Example 25]
70	61	COc1ccc(N2CC(C(=O)N3CC(C)C(O)(C4CC4)C(C)C3)C(c3ccc(Cl)cn3)C2)nn1 (stereo not drawn) [Example 26]
51	64	CC1CN(C(=O)C2CN(c3ccc(=O)[nH]n3)CC2c2ccc(Cl)cn2)CC(C)C1(O)c1ccccc1 (stereo not drawn) [Example 27]
33	77	C[C@@H]1CN(C(=O)[C@@H]2CN(c3ccc(=O)[nH]n3)C[C@H]2c2ccc(Cl)cn2)C[C@H](C)[C@@]1(O)c1ccccn1 [Example 28]
141	38	CC1CN(C(=O)C2CN(c3ccc(C#N)nn3)CC2c2ccc(Cl)cn2)CC(C)C1(O)c1ccccn1 (stereo not drawn) [Example 30]
